Measurements reported in PubChem BioAssay AID1963851 (Molecular Pharmacology Branch, DTP, NCI, 2024).

Test system: 188146-221-R-J1-PDC complex spheroid viability
Assay: Anticancer human tumor 188146-221-R-J1-PDC patient-derived colon adenocarcinoma cell line growth inhibition [POLQ]
Conditions: for IC50: curve of first compound; for viability, T/C: stronger effect = lower value
Procedure, shortened: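 Complex spheroid viability model combining PDC tumour cells with endothelial (HUVEC) and MSC stromal cells. Novobiocin, ART-558 or RP6685 were tested singly and in combination with standard and investigational anticancer drugs. Each was titrated in half-log steps from near clinical Cmax, or from 10 microM where Cmax was unknown.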

[1] = second compound 0.0316 µM, first compound 0.0316 µM
[2] = second compound 0.0316 µM, first compound 0.1 µM
[3] = second compound 0.0316 µM, first compound 0.316 µM
[4] = second compound 0.0316 µM, first compound 1 µM
[5] = second compound 0.0316 µM, first compound 3.16 µM
[6] = second compound 0.0316 µM, first compound 10 µM
[7] = second compound 0.1 µM, first compound 0.0316 µM
[8] = second compound 0.1 µM, first compound 0.1 µM
[9] = second compound 0.1 µM, first compound 0.316 µM
[10] = second compound 0.1 µM, first compound 1 µM
[11] = second compound 0.1 µM, first compound 3.16 µM
[12] = second compound 0.1 µM, first compound 10 µM
[13] = second compound 0.316 µM, first compound 0.0316 µM
[14] = second compound 0.316 µM, first compound 0.1 µM
[15] = second compound 0.316 µM, first compound 0.316 µM
[16] = second compound 0.316 µM, first compound 1 µM
[17] = second compound 0.316 µM, first compound 3.16 µM
[18] = second compound 0.316 µM, first compound 10 µM
[19] = second compound 1 µM, first compound 0.0316 µM
[20] = second compound 1 µM, first compound 0.1 µM
[21] = second compound 1 µM, first compound 0.316 µM
[22] = second compound 1 µM, first compound 1 µM
[23] = second compound 1 µM, first compound 3.16 µM
[24] = second compound 1 µM, first compound 10 µM
[25] = second compound 3.16 µM, first compound 0.0316 µM
[26] = second compound 3.16 µM, first compound 0.1 µM
[27] = second compound 3.16 µM, first compound 0.316 µM
[28] = second compound 3.16 µM, first compound 1 µM
[29] = second compound 3.16 µM, first compound 3.16 µM
[30] = second compound 3.16 µM, first compound 10 µM
[31] = second compound 10 µM, first compound 0.0316 µM
[32] = second compound 10 µM, first compound 0.1 µM
[33] = second compound 10 µM, first compound 0.316 µM
[34] = second compound 10 µM, first compound 1 µM
[35] = second compound 10 µM, first compound 3.16 µM
[36] = second compound 10 µM, first compound 10 µM
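Also: spheroids exposed to compounds for seven days.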
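For viability, T/C in this document: 100% = DMSO vehicle control viability.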

SMILES: COc1cc2cc(C(=O)CCC(=O)O)sc2cc1OC + COC1C(OC(N)=O)C(O)C(Oc2ccc3c(O)c(NC(=O)c4ccc(O)c(CC=C(C)C)c4)c(=O)oc3c2C)OC1(C)C
- IC50 (second compound 0.0316 µM): > 10 µM
- IC50 (second compound 0.1 µM): > 10 µM
- IC50 (second compound 0.316 µM): > 10 µM
- IC50 (second compound 1 µM): > 10 µM
- IC50 (second compound 3.16 µM): > 10 µM
- IC50 (second compound 10 µM): > 10 µM
- viability, T/C [1]: 108%
- viability, T/C [2]: 107%
- viability, T/C [3]: 107%
- viability, T/C [4]: 111%
- viability, T/C [5]: 107%
- viability, T/C [6]: 98%
- viability, T/C [7]: 105%
- viability, T/C [8]: 98.3%
- viability, T/C [9]: 99.9%
- viability, T/C [10]: 99.8%
- viability, T/C [11]: 92.9%
- viability, T/C [12]: 98.3%
- viability, T/C [13]: 103%
- viability, T/C [14]: 107%
- viability, T/C [15]: 99.7%
- viability, T/C [16]: 94.9%
- viability, T/C [17]: 95.6%
- viability, T/C [18]: 93%
- viability, T/C [19]: 101%
- viability, T/C [20]: 96.8%
- viability, T/C [21]: 83.6%
- viability, T/C [22]: 100%
- viability, T/C [23]: 101%
- viability, T/C [24]: 101%
- viability, T/C [25]: 102%
- viability, T/C [26]: 94.1%
- viability, T/C [27]: 95.7%
- viability, T/C [28]: 84.3%
- viability, T/C [29]: 114%
- viability, T/C [30]: 108%
- viability, T/C [31]: 105%
- viability, T/C [32]: 92%
- viability, T/C [33]: 108%
- viability, T/C [34]: 101%
- viability, T/C [35]: 111%
- viability, T/C [36]: 109%

SMILES: CCc1cc2c(N3CCc4c(cc(Cn5ccnc5)cc4-c4cn(C)nc4C(F)(F)F)C3=O)cc(C)nc2c(OC)n1 + Nc1ccc(C#CCN(C(=O)Cc2ncc(C(F)(F)F)cc2C(F)(F)F)c2ccc(F)cc2)nn1
- IC50 (second compound 0.0316 µM): 8.54 µM
- IC50 (second compound 0.1 µM): 7.95 µM
- IC50 (second compound 0.316 µM): 6.94 µM
- IC50 (second compound 1 µM): > 10 µM
- IC50 (second compound 3.16 µM): 7.01 µM
- IC50 (second compound 10 µM): 8.08 µM
- viability, T/C [1]: 89.1%
- viability, T/C [2]: 101%
- viability, T/C [3]: 74.4%
- viability, T/C [4]: 85.7%
- viability, T/C [5]: 71.2%
- viability, T/C [6]: 46.3%
- viability, T/C [7]: 119%
- viability, T/C [8]: 101%
- viability, T/C [9]: 103%
- viability, T/C [10]: 95%
- viability, T/C [11]: 66%
- viability, T/C [12]: 46%
- viability, T/C [13]: 120%
- viability, T/C [14]: 101%
- viability, T/C [15]: 94%
- viability, T/C [16]: 103%
- viability, T/C [17]: 66.1%
- viability, T/C [18]: 40.8%
- viability, T/C [19]: 107%
- viability, T/C [20]: 96.3%
- viability, T/C [21]: 104%
- viability, T/C [22]: 95.2%
- viability, T/C [23]: 85.5%
- viability, T/C [24]: 50.4%
- viability, T/C [25]: 111%
- viability, T/C [26]: 115%
- viability, T/C [27]: 109%
- viability, T/C [28]: 85.8%
- viability, T/C [29]: 68.8%
- viability, T/C [30]: 42.1%
- viability, T/C [31]: 93.7%
- viability, T/C [32]: 102%
- viability, T/C [33]: 99%
- viability, T/C [34]: 84.8%
- viability, T/C [35]: 69.5%
- viability, T/C [36]: 45.6%

SMILES: COc1cccc(OCCCN)c1-c1cc(Nc2cnc(C#N)cn2)n[nH]1 + Nc1ccc(C#CCN(C(=O)Cc2ncc(C(F)(F)F)cc2C(F)(F)F)c2ccc(F)cc2)nn1
- IC50 (second compound 0.0316 µM): 0.0642 µM
- IC50 (second compound 0.1 µM): 0.0573 µM
- IC50 (second compound 0.316 µM): 0.0477 µM
- IC50 (second compound 1 µM): 0.0299 µM
- IC50 (second compound 3.16 µM): 0.0375 µM
- IC50 (second compound 10 µM): 0.0286 µM
- viability, T/C (second compound 0.0316 µM, first compound 0.00316 µM): 94.9%
- viability, T/C (second compound 0.0316 µM, first compound 0.01 µM): 96%
- viability, T/C [1]: 77.4%
- viability, T/C [2]: 32.7%
- viability, T/C [3]: 16.2%
- viability, T/C [4]: 13.6%
- viability, T/C (second compound 0.1 µM, first compound 0.00316 µM): 104%
- viability, T/C (second compound 0.1 µM, first compound 0.01 µM): 109%
- viability, T/C [7]: 66.6%
- viability, T/C [8]: 34.3%
- viability, T/C [9]: 17.3%
- viability, T/C [10]: 14%
- viability, T/C (second compound 0.316 µM, first compound 0.00316 µM): 106%
- viability, T/C (second compound 0.316 µM, first compound 0.01 µM): 99.1%
- viability, T/C [13]: 59.1%
- viability, T/C [14]: 30.9%
- viability, T/C [15]: 16.9%
- viability, T/C [16]: 12.2%
- viability, T/C (second compound 1 µM, first compound 0.00316 µM): 108%
- viability, T/C (second compound 1 µM, first compound 0.01 µM): 111%
- viability, T/C [19]: 46.8%
- viability, T/C [20]: 28.2%
- viability, T/C [21]: 15.6%
- viability, T/C [22]: 14%
- viability, T/C (second compound 3.16 µM, first compound 0.00316 µM): 91.5%
- viability, T/C (second compound 3.16 µM, first compound 0.01 µM): 85.1%
- viability, T/C [25]: 54.3%
- viability, T/C [26]: 23.7%
- viability, T/C [27]: 15.6%
- viability, T/C [28]: 13.7%
- viability, T/C (second compound 10 µM, first compound 0.00316 µM): 119%
- viability, T/C (second compound 10 µM, first compound 0.01 µM): 87.8%
- viability, T/C [31]: 47.6%
- viability, T/C [32]: 21.7%
- viability, T/C [33]: 17%
- viability, T/C [34]: 15.4%
